Converted amounts (≈) assume the structure as drawn.
Key:
DANG [1] = experiment: Cell cycle analysis; format: cell-based, human; conditions: 2 days
Experimental: The area of each bar is divided to indicate the percentage of cells in G0/G1, S and G2 phase.
Cells were plated in six-well plates, and 5-6 hours later chemotherapeutic agents were added for either 24 h 48 h or 3 days. Cells floating in the medium were combined with the adherent cell layer, which was trypsinized. Cells were washed. Either cell cycle analysis was started directly or cell surface staining was done before as described above. Cells are resuspended in 1 ml PBS and added to 3 ml 4% PFA. After 15 min fixation of cells at room temperature cells are pelleted and washed. For RNAse treatment cells were resuspended in 200 μl RNAse (10000 U/ml) plus 0.05% Triton X-100 and incubated for 30 min at 37° C. 1 ml PBS was added and samples were centrifuged and resuspended in 200 μl PBS/PJ 50 μg/ml. At least 30 min later samples were ready to be analyzed by flow cytometry. Cell cycle phase distribution was determined using FlowJo software to analyze DNA content histograms.

BxPC3-LVT = experiment: Inhibition of proliferation (XTT viability assay, 4 days); format: cell-based, human
Experimental: (§1) To analyze dose-response curves of each chemotherapeutic agent, a proliferation assay was performed.
(§2) Cells were seeded in 96 well plates and after 4-6 hours gemcitabine or oxaliplatin was added in following concentrations: 1000, 500, 250, 100 and 20 ng/ml. The proliferation assay was incubated for 4 days at 37° C. and 5% CO2. 50 μl XTT complete reagent (50 parts XTT+1 part coupl. reagent mixed) was added and incubated at 37° C. Measurement of absorbance (cells plus supernatant) was done with the Tecan Safire after 3 h and 4 h. Inhibition of proliferation was calculated compared to medium values set as 100%. EC50 values for gemcitabine and oxaliplatin were calculated in the GraphPad Prism program.

DANG [2] = experiment: as above; format: cell-based, human
Experimental: as §1, §2

MiaPaCa-2-LVT = experiment: as above; format: cell-based, human
Experimental: as §1, §2

Suit2-LVT metastases = experiment: Suit2-LVT metastasis model (lung, Q-PCR and IHC); format: in vivo, mice; conditions: 200 μg IMAB362, day 42
Experimental: Animals were sacrificed on day 42 post graft. […] Human cells were immunohistochemically stained in tissue sections with anti-human MHC-class I antibodies. * p<0.05 (Kruskal-Wallis test). Error bars: mean±SD.
Metastasis treatments were performed with 10-12 Hsd:Athymic Nude-Foxn1^nu mice per treatment group. […] All mice were sacrificed at the same time point, as soon as the first symptoms of metastasis disease appeared (loss of weight, weakness, shortness of breath), or the first mouse died.
All their organs were macroscopically analyzed for metastasis. […] These organs were dissected into 4 equal pieces, two (lung: upper right and lower left lobe), which were stored for genomic DNA isolation. The other two pieces were formalin fixed and stored for IHC analysis (FIG. 2).
Preparation of genomic DNA and Q-PCR strategy: Genomic DNA was extracted from lung or liver tissue.
The Q-PCR strategy is based on the amplification of human DNA present in the metastases. The relative detection level of human DNA in the mouse lung sample correlates directly with the amount and/or size of the metastases.
The Q-PCR reaction was performed with primer pair #5861 5′-[…]-3′ (SEQ ID NO: 53) and #5862 5′-[…]-3′ (SEQ ID NO: 54) specifically amplifying the alpha-satellite DNA present in human chromosome 17, but not in mouse DNA. […] The curve was used to calculate (linear regression) the amount of human metastasis DNA present in mouse lung tissue. Q-PCR reactions were performed in 50 μl final volume comprised of 20 μl (200 ng) mouse lung DNA, 25 μl Sybr Green (Qiagen), 1.6 μl sense primer (10 μM) and 1.6 μl anti-sense primer and 1.8 μl H2O.
After 35 days the first mouse (isotype control group) died. Consequently, all mice were sacrificed on day 42 and lungs and livers were taken for IHC and Q-PCR analyses.
Q-PCR analysis of human DNA in the lungs of mice was repeated at least twice in triplicate. […] The surface of the positively stained cells in the lung sections was calculated using the ImageJ Program. […]

[3] = system: LVT pancreatic cancer cell lines ectopically expressing CLDN18.2; experiment: IF staining with IMAB362 under native conditions; format: binding, human; conditions: 8 LVT pancreatic cancer cell lines
Excerpt: IF analysis of pancreatic cancer cell lines (FIGS. 16A, 16B, 16D and 16E), lentivirally transduced pancreas cell lines (FIGS. 16G-16L) and KATO-III gastric cancer control cells (FIGS. 16C and 16F) expressing CLDN18.2. […] DAPI was used to stain the nuclei. Exposure times are indicated in each panel. FIG. 16G: BxPC3-LVT; FIG. 16H: CAPAN1-LVT; FIG. 16I: DANG-LVT; FIG. 16J: MiaPaCa2-LVT; FIG. 16K: Patu8902-LVT; FIG. 16L: Suit2-LVT.

HPAFII = experiment: IMAB362-mediated ADCC assay; format: cell-based, human; conditions: at least 2 donors
Suit2-LVT cells = experiment: FACS binding to Suit2-LVT cells; set-up: species or system human; conditions: 200 μg/ml antibody
Experimental: Cells were harvested with PBS/5 mM EDTA or Trypsin/EDTA from an exponentially growing culture at 70-85% confluency. Cells were counted, centrifuged for 5 min (468 g) and the pellet was resuspended in FACS buffer (2% FCS, 0.1% sodium azide in PBS) adjusting the concentration to 2×10^6/ml. 100 μl cells were plated in round bottom 96-well plates and again centrifuged (5 min, 468 g). […] Then, 200 μl FACS buffer was added to each well and plates were centrifuged (5 min, 468 g). The supernatant was removed and washing was repeated. Secondary goat anti-human antibodies (FC specific, F(ab′)2 conjugated with APC (Dianova)) were diluted (1:100) in FACS buffer and 30 μl was added to each well. Plates were incubated for 30 min at 4° C. After incubation plates were washed again two times with 200 μl FACS buffer and the pellet was finally resuspended in 100 μl FACS buffer for measurement FACS Array Bioanalyzer (BD) according to GA_018_BD FACS Array bioanalyzer.
In addition to tissue processing, it is possible that the result represents unexpected inhibiting effects of the isotype control antibody targeting CLDN6. To investigate this option, the Suit2-LVT cells were analyzed for CLDN6 expression and IMAB027 binding in FACS.

Panc03.27 = experiment: IMAB362-mediated ADCC assay; format: cell-based, human; conditions: at least 2 donors
[4] = Repeated dose toxicity study in cynomolgus monkeys; format: in vivo
[5] = Homo sapiens, 96 h, 4 days exposure

Compound	cell cycle effect (DANG [1])	sensitivity of cells to the agent (BxPC3-LVT)	IC50 (BxPC3-LVT; [5])	sensitivity of cells to the agent (DANG [2])	IC50 (DANG [2]; [5])	sensitivity of cells to the agent (MiaPaCa-2-LVT)	IC50 (MiaPaCa-2-LVT; [5])	surface of MHC-I stained cells in lung sections (IHC) (Suit2-LVT metastases; versus PBS)	percentage of human DNA in lungs (Q-PCR) (Suit2-LVT metastases; versus PBS and isotype control)	surface of MHC-I stained cells in lung sections (IHC) (Suit2-LVT metastases; versus isotype control antibody)	membrane staining (IF, native staining protocol) [3]	ADCC EC50 (HPAFII)	ADCC Max. lysis (HPAFII)	binding to cells in FACS (Suit2-LVT cells)	ADCC EC50 (Panc03.27)	ADCC Max. lysis (Panc03.27)	gastric toxicity ([4]; any toxicity study)	tolerability of repeated doses i.v. ([4]; up to 5 weekly applications of up to 100 mg/kg)
Nc1ccn([C@@H]2O[C@H](CO)[C@@H](O)C2(F)F)c(=O)n1 [gemcitabine, 4-amino-1-(2-deoxy-2,2-difluoro-β-D-erythro-pentofuranosyl)pyrimidin-2(1H)-one]	cell cycle arrest of cells in S-Phase	very sensitive	~2 ng/mL (≈ 7.6 nM)	very sensitive	~1 ng/mL (≈ 3.8 nM)	less sensitive	0.05 µg/mL (≈ 190 nM)											
IMAB362: chimeric IgG1 antibody directed against CLDN18.2, developed by Ganymed Pharmaceuticals AG								significant inhibition (P<0.05)	significant decrease (P<0.05)	not significant	clear membrane staining	n.m.	n.m.	strong binding	n.m.	n.m.	no gastric toxicity	well tolerated
